This is an account of results in patent US12419865B2 (priority 2018, dated 2025).

The test system of series [1] is MACV-p. Kind of series: organism not typed. Format: cell-based, Machupo (MACV). The note with it: Vero, read-out: MACV-p EC50.
Series [2] concerns TCRV-p. Kind of series: organism not typed. Format: cell-based. The note with it: read-out: TCRV-p EC50.
For series [3] the following is noted: 1 h, pH 7.4.
For series [4], the system named is JUNV-p. Kind of series: organism not typed. Format: cell-based, Junin (JUNV). The note with it: Vero, read-out: JUNV-p EC50.
For series [5], the system named is LASV-p. Kind of series: microbe, parasite or virus in culture. Type of series: cell-based, Lassa (LASV). The note with it: Vesicular stomatitis virus, Vero, read-out: LASV-p EC50.
The conditions of series [6]: guinea pig, 1 h, pH 7.4.
Series [7] has as its system VSV-p. Kind of series: microbe, parasite or virus in culture. Type of series: cell-based. The following applies: Vesicular stomatitis virus, Vero, read-out: VSV-p EC50.
The nature of series [8]: in vitro. The following applies: African green monkey.
For series [9] the following is noted: 1 h, pH 7.4. The source holds these as a separate data set.
Series [10] concerns replicative LASV. Kind of series: microbe, parasite or virus in culture. Type of series: cell-based, Lassa Virus. The following applies: for EC90: Mammarenavirus lassaense.

Where two headings read alike, the source gives them in different places. Bounds are passed on as bounds.

Consider `CC(C)Oc1ccc(-c2ccc3nnn(-c4ccc(OC(C)C)cc4)c3c2F)cc1` [Example C12, 7-fluoro-1,6-bis(4-isopropoxyphenyl)-1H-benzo[d][1,2,3]triazole], for which the EC50 in series [1] was 0.55 nM; in series [2] (Vero), 15 nM; in series [4], 0.15 nM; in series [5], 1.31 nM; in [7] it was greater than 10000 nM. The “Percent parent compound remaining at 60 minutes in liver microsomes, Mouse” value in series [3] is recorded as 90.3%. Further, the “Percent parent compound remaining at 60 minutes in liver microsomes, Guinea” value in series [6] was greater than 95%. For the same molecule, the CC50 in series [8] is greater than 100000 nM. The “Percent parent compound remaining at 60 minutes in liver microsomes, Human” value (shortened to “Percent parent compound remaining … Human”) in series [9] is greater than 95%.
On to `Cc1nc2ncc(-c3ccc(OC(C)C)cc3)n2cc1-c1ccc(OC(C)C)cc1` [Example D27, 3,6-bis(4-isopropoxyphenyl)-7-methylimidazo[1,2-a]pyrimidine], for which the EC50 is 0.85 nM in series [1]; 0.2 nM in [2] (Vero); 0.78 nM in series [4]; 0.75 nM in series [5]; greater than 10000 nM in series [7]. This molecule showed a CC50 in series [8] of 2180 nM.
As to `CC(C)Oc1ccc(-c2cc3c(cc2CO)nnn3-c2ccc(OC(C)C)cc2)cc1` [Example C19, (1,6-bis(4-isopropoxyphenyl)-1H-benzo[d][1,2,3]triazol-5-yl)methanol], the EC50 in [1] was 3.82 nM; in [2] (Vero) it was 8 nM; in series [4], 0.75 nM; in [5], 22.5 nM; in series [7] it was greater than 10000 nM. Also, the CC50 in [8] came to 81700 nM.
Regarding `CC(C)Oc1ccc(-c2cc3c(cc2C(N)=O)nnn3-c2ccc(OC(C)C)cc2)cc1` [Example C21, 1,6-bis(4-isopropoxyphenyl)-1H-benzo[d][1,2,3]triazole-5-carboxamide], the EC50 in series [1] is greater than 25 nM; in series [2] (Vero), greater than 25 nM; in [4], greater than 25 nM; in series [5], greater than 25 nM; in series [7], greater than 10000 nM.
For the molecule `CC(C)Oc1ccc(-c2cc3c(cc2N)nnn3-c2ccc(OC(C)C)cc2)cc1` [Example C23, 1,6-bis(4-isopropoxyphenyl)-1H-benzo[d][1,2,3]triazol-5-amine], the EC50 in series [1] is 0.53 nM; in series [2] (Vero), 0.96 nM; in [4] it was 0.29 nM; in [5] it was 6.72 nM; in series [7] it was greater than 10000 nM. This molecule also had a CC50 in [8] of 43000 nM.
For `Cc1c(-c2ccc(OC(C)C)cc2)ccc2nnn(-c3ccc(OC(C)C)cc3)c12` [Example C14, 1,6-bis(4-isopropoxyphenyl)-7-methyl-1H-benzo[d][1,2,3]triazole], the EC50 was 0.28 nM in series [1]; 4.7 nM in series [2] (Vero); 0.17 nM in series [4]; 2.44 nM in [5]; greater than 10000 nM in series [7]. The “Percent parent compound remaining at 60 minutes in liver microsomes, Mouse” value in series [3] is reported as greater than 95%. The “Percent parent compound remaining at 60 minutes in liver microsomes, Guinea” value in series [6] is greater than 95%. The CC50 in [8] was greater than 100000 nM. Moreover, in [9], the “Percent parent compound remaining … Human” value was greater than 95%.
As for `CCc1cc2nnn(-c3ccc(OC(C)C)cc3)c2cc1-c1ccc(OC(C)C)cc1` [Example C26, 5-ethyl-1,6-bis(4-isopropoxphenyl)-1H-benzo[d][1,2,3]triazole], the EC50 in series [1] was 0.04 nM; in [2] (Vero), 5.92 nM; in [4] it was 0.1 nM; in series [5] it was 3.9 nM; in series [7], greater than 10000 nM. The same molecule showed a CC50 in series [8] of 3590 nM.
Turning to `CC(C)Oc1ccc(-n2nnc3ccc(-c4cccc(OC(C)C)c4)cc32)cc1` [Example C18, 6-(3-isopropoxyphenyl)-1-(4-isopropoxyphenyl)-1H-benzo[d][1,2,3]triazole], the EC50 in series [1] is greater than 25 nM; in series [2] (Vero), greater than 25 nM; in series [4], greater than 25 nM; in series [5], greater than 25 nM; in [7] it was greater than 10000 nM.
For `COC(=O)c1cc2nnn(-c3ccc(OC(C)C)cc3)c2cc1-c1ccc(OC(C)C)cc1` [Example C10, methyl 1,6-bis(4-isopropoxyphenyl)-1H-benzo[d][1,2,3]triazole-5-carboxylate], the EC50 was 4.05 nM in series [1]; 12.3 nM in series [2] (Vero); 11 nM in series [4]; 20.6 nM in series [5]; greater than 10000 nM in series [7]. Moreover, in series [8], the CC50 is greater than 100000 nM.
Regarding `[2H]C([2H])([2H])C([2H])(Oc1ccc(-c2cn3c(-c4ccc(OC(C)(C)C)cc4)cnc3cc2C)cc1)C([2H])([2H])[2H]` [Example E30, 3-(4-(tert-butoxy)phenyl)-6-(4-(isopropoxy-d7)phenyl)-7-methylimidazo[1,2-a]pyridine], the EC50 was determined as 0.09 nM in series [1], 0.2 nM in series [2], 0.09 nM in [4] and 0.39 nM in series [5]. Also, the CC50 in series [8] stood at 3800 nM. The Sl90 in [10] is >1,510. The EC90 is less than 14 nM in series [10] (Vero, read-out: VYR Assay EC90) and less than 14 nM in series [10] (read-out: EC90 in the VYR assay format).
`COc1cc2nnn(-c3ccc(O)cc3)c2cc1-c1ccc(O)cc1` [Example C24, 4,4′-(5-methoxy-1H-benzo[d][1,2,3]triazole-1,6-diyl)diphenol]: the EC50 was greater than 25 nM in series [1]; 18.4 nM in series [2] (Vero); 19 nM in series [4]; 4.62 nM in series [5]; greater than 10000 nM in series [7]. This molecule also gave a CC50 in series [8] of 32200 nM.
As to `C=Cc1cc2nnn(-c3ccc(OC(C)C)cc3)c2cc1-c1ccc(OC(C)C)cc1` [Example C25, 1,6-bis(4-isopropoxyphenyl)-5-vinyl-1H-benzo[d][1,2,3]triazole], the EC50 in series [1] was 0.3 nM; in [2] (Vero), 8.01 nM; in series [4], 1.47 nM; in series [5], 6.78 nM; in series [7] it was greater than 10000 nM. The molecule further gave a CC50 in series [8] of 3870 nM.
Consider `CC(C)Oc1ccc(-n2nnc3ccc(-c4cccc(C(C)(C)O)c4)cc32)cc1` [Example C17, 2-(3-(1-(4-isopropoxyphenyl)-1H-benzo[d][1,2,3]triazol-6-yl)phenyl)propan-2-ol], for which the EC50 in series [1] was greater than 25 nM; in [2] (Vero), greater than 25 nM; in series [4] it was 12.2 nM; in series [5], 15.8 nM; in series [7] it was greater than 10000 nM. In addition, the CC50 in series [8] is 10500 nM.
In the case of `Cc1cc2ncc(-c3ccc(C(C)(C)O)cc3)n2cc1-c1ccc(C(C)(C)O)cc1` [Example B9, 2,2′-((7-methylimidazo[1,2-a]pyridine-3,6-diyl)bis(4,1-phenylene))bis(propan-2-ol)], the EC50 in [1] was greater than 25 nM; in [2] (Vero) it was 16.1 nM; in series [4] it was greater than 25 nM; in [5] it was greater than 25 nM; in series [7], greater than 10000 nM.
As for `CC(C)Oc1ccc(-c2cc3c(cc2CN)nnn3-c2ccc(OC(C)C)cc2)cc1` [Example C22, (1,6-bis(4-isopropoxyphenyl)-1H-benzo[d][1,2,3]triazol-5-yl)methanamine], the EC50 in [1] was greater than 25 nM; in series [2] (Vero) it was greater than 25 nM; in series [4], greater than 25 nM; in series [5] it was greater than 25 nM; in series [7] it was greater than 10000 nM.
Consider `COc1cc2nnn(-c3ccc(OC(C)C)cc3)c2cc1-c1ccc(OC(C)C)cc1` [Example C15, 1,6-bis(4-isopropoxyphenyl)-5-methoxy-1H-benzo[d][1,2,3]triazole], for which the EC50 in series [1] is 7.09 nM; in series [2] (Vero) it was 11.4 nM; in [4], 3.06 nM; in series [5], 23.4 nM; in series [7], greater than 10000 nM. The CC50 in series [8] worked out at 98400 nM.
For `CC(C)Oc1ccc(-c2cc3c(cc2C(=O)O)nnn3-c2ccc(OC(C)C)cc2)cc1` [Example C20, 1,6-bis(4-isopropoxyphenyl)-1H-benzo[d][1,2,3]triazole-5-carboxylic acid], the EC50 was greater than 25 nM in [1]; greater than 25 nM in [2] (Vero); greater than 25 nM in series [4]; greater than 25 nM in [5]; greater than 10000 nM in series [7].
For the molecule `Cc1nc2ncc(-c3ccc(OC(C)(C)C)cc3)n2cc1-c1ccc(OC(C)C)cc1` [Example D28, 3-(4-(tert-butoxy)phenyl)-6-(4-isopropoxyphenyl)-7-methylimidazo[1,2-a]pyrimidine], the EC50 in series [1] is 0.31 nM; in series [2] (Vero), 0.15 nM; in [4] it was 0.4 nM; in series [5], 0.3 nM; in series [7], greater than 10000 nM. In addition, the CC50 in [8] turned out to be 12300 nM.
As to `Cc1nc2ncc(-c3ccc(C(C)(C)O)cc3)n2cc1-c1ccc(OC(C)C)cc1` [Example D29, 2-(4-(6-(4-isopropoxphenyl)-7-methylimidazo[1,2-a]pyrimidin-3-yl)phenyl)propan-2-ol], the EC50 in series [1] is 0.87 nM; in series [2] (Vero) it was 1.27 nM; in [4] it was 1.03 nM; in series [5], 1.84 nM; in series [7] it was greater than 10000 nM. This molecule also registered a CC50 in series [8] of 42100 nM.
Take `CC(C)Oc1ccc(-c2cc3c(cc2F)nnn3-c2ccc(OC(C)C)cc2)cc1` [Example C13, 5-fluoro-1,6-bis(4-isopropoxyphenyl)-1H-benzo[d][1,2,3]triazole]: the EC50 is 0.66 nM in [1]; 1.53 nM in series [2] (Vero); 0.27 nM in series [4]; 4 nM in series [5]; greater than 10000 nM in series [7]. Besides, in series [8], the CC50 was greater than 100000 nM. In addition, the “Percent parent compound remaining … Human” value in series [9] stood at 79.5%.

A word on the EC50: it is the concentration that produces a half-maximal response. Usually EC90 stands for the point of the concentration-response curve where the effect stands at 90%.
